In ChEMBL document CHEMBL1201862, “PubChem BioAssay data set” (2004):
Activity calls are given as the source filed them.

What was measured:
[1] = enhancers of respiration in Yfh1-depleted yeast, dose response, Friedreich's ataxia, plus single-dose screen (AID 1465); assay type: functional;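 further: yeast depleted of Yfh1p frataxin homolog grown on glycerol needing respiration; WST-1 tetrazolium dye reduction as measure of cellular dehydrogenase metabolic activity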
[2] = off-target signal loss in HeLa-CEM21 co-culture – HeLa F-luc CTL cells, cherry-picked, counter-screen for HIV-1 Env fusion inhibitor project, dose response (AID 652040); assay type: functional, cell-based;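 further: potency for signal decrease marking cytotoxic or nonspecific inhibition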
[3] = Luminescence-based counterscreen assay for KLF5 inhibitors: dose response cell-based high throughput screening assay to identify cytotoxic compounds using the IEC-6 intestinal epithelial cell line. [Related pubchem assays: 1700 (Primary screen.), 1834 (Confirmation screen.), 1858 (Summary AID.), 1905 (Counterscreen.)]; assay type: functional
[4] = target: T1, Luciferin 4-monooxygenase (Photinus pyralis, UniProt P08659); assay: Counter Screen for Luciferase-based Assay Positives. [Related pubchem assays: 620, 618, 411 ]
[5] = tested on: HEK293; assay: PMA/Ionomycin-induced IL-8 production in HEK293- NF-kB-Luc stable cells. [Related pubchem assays: 1299, 1295, 1375, 1287, 1281, 1293, 1291, 1289, 1280, 465, 1364, 1282, 1372, 1365, 1367, 1366, 1266, 1269, 1373, 1292, 1290, 1302, 1371, 1283, 1271, 1294, 1374, 1368, 1369 ]; assay type: functional, cell-based; settings: Homo sapiens
[6] = target: Protein Tat (Human immunodeficiency virus type 1 group M subtype B (isolate HXB2)(HIV-1), UniProt P04608); assay type: functional;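 further: tat binding to TAR RNA read out by fluorescence polarization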
[7] = inhibitors of HIV Env-driven cell fusion, dose response, cherry-pick (AID 652057); assay type: functional, cell-based
[8] = tested on: HEK293; assay: Cytotoxicity assay in HEK293 cells. [Related pubchem assays (depositor defined):AID1266, AID1269, AID1270, AID1271, AID1280, AID1281, AID1282, AID1283, AID1287, AID1289, AID1290, AID1291, AID1292, AID1293, AID1294, AID1295, AID1299, AID1302, AID1364, AID1365, AID1366, AID1367, AID1369, AID1370, AID1371, AID1372, AID1373, AID1374, AID1375, AID1384 …; assay type: functional, cell-based; settings: Homo sapiens
[9] = tested on: HT-1080; assay: cytotoxicity in HT1080 fibrosarcoma cells, cell-based, fluorescence readout (AID 620); assay type: functional; settings: Homo sapiens
[10] = target: Glyceraldehyde-3-phosphate dehydrogenase (Homo sapiens, UniProt P04406)
[11] = target: T1, Luciferin 4-monooxygenase; assay: In vitro luciferase assay using purified luciferase. [Related pubchem assays: 1299, 1270, 1295, 1375, 1287, 1281, 1293, 1291, 1289, 1280, 465, 1364, 1282, 1372, 1365, 1370, 1367, 1366, 1266, 1373, 1292, 1290, 1302, 1371, 1283, 1271, 1294, 1374, 1368, 1369 ]
[12] = inhibitors of clade B AD8 Env fusion, dose response, cell-based, cherry-pick (AID 652062); assay type: functional;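 further: luciferase signal from cell-cell fusion driven by HIV-1 clade B AD8 Env; potency is for inhibitors of fusion seen as a drop in luminescence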
[13] = ZM109 Env clade C HIV-1 fusion inhibitors, dose response, HeLa effector, CEM target cells, luciferase, cherry-pick (AID 652058); assay type: functional, cell-based
[14] = tested on: HEK293; assay: TNF Induced NF-kB Luciferase in 293-NF-kB-Luc Stable Cells. [Related pubchem assays: 1266, 1299, 1269, 1373, 1292, 1290, 1302, 1371, 1283, 1270, 1295, 1271, 1375, 1294, 1374, 1281, 1293, 1291, 1289, 1280, 465, 1368, 1364, 1282, 1372, 1365, 1369, 1370, 1367, 1366 ]; assay type: functional, cell-based; settings: Homo sapiens
[15] = tested on: HEK293; assay: PMA/Ionomycin induced NF-kB luciferase assay in 293- NF-kB-Luc stable cells. [Related pubchem assays: 1299, 1270, 1295, 1375, 1287, 1281, 1293, 1291, 1289, 1280, 465, 1364, 1282, 1372, 1365, 1370, 1367, 1366, 1269, 1373, 1292, 1290, 1302, 1371, 1283, 1271, 1294, 1374, 1368, 1369 ]; assay type: functional, cell-based; settings: Homo sapiens
[16] = target: T2, Eukaryotic translation initiation factor 2-alpha kinase 3 (Homo sapiens, UniProt Q9NZJ5); assay: Counterscreen assay for PERK inhibitors: Dose response cell-based high throughput screening assay to measure inhibition of PERK at 6 hours. [Related pubchem assays: 1522, 1416 ]; assay type: functional
[17] = target: T2, Eukaryotic translation initiation factor 2-alpha kinase 3; assay: Dose response cell-based high-throughput screening assay to measure PERK inhibition. [Related pubchem assays: 1416 ]; assay type: functional
[18] = polyadenylation inhibitors in yeast reporter, dose response, luminescence, S. cerevisiae SKY197-pL101 (AID 2525); assay type: functional, cell-based
[19] = Luminescence Cell-Based Dose Confirmation HTS to Identify Inhibitors of Polyadenylation.; assay type: functional
[20] = target: Large T antigen (Simian virus 40, UniProt P03070); assay type: functional, Betapolyomavirus macacae;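 further: Confirmatory-stage PubChem screen for compounds that inhibit SV40 T antigen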
[21] = S. cerevisiae growth inhibition, dose response, counter-screen for polyadenylation inhibitor project, Alamar Blue fluorescence, MIC (AID 2693); assay type: functional; settings: Saccharomyces cerevisiae
[22] = target: Serine/threonine-protein phosphatase PP1-alpha catalytic subunit (Homo sapiens, UniProt P62136); assay: PP1 phosphatase inhibitors, dose response, biochemical, fluorescence (AID 2403);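 further: phosphatase turnover of OMFP into fluorescent 3-O-methylfluorescein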
[23] = target: Serine/threonine-protein phosphatase (Homo sapiens, UniProt Q9BPW0); assay: Counterscreen for inhibitors of PP1: fluorescence-based biochemical high throughput dose response assay to identify inhibitors of Protein Phosphatase 5 (PP5). [Related pubchem assays: 2034 (Summary (PP5 inhibitors)), 1987 (PP5 inhibitors in singlate), 2235 (PP1 inhibitors in singlate)]
Sequence of Serine/threonine-protein phosphatase (Q9BPW0 whole entry): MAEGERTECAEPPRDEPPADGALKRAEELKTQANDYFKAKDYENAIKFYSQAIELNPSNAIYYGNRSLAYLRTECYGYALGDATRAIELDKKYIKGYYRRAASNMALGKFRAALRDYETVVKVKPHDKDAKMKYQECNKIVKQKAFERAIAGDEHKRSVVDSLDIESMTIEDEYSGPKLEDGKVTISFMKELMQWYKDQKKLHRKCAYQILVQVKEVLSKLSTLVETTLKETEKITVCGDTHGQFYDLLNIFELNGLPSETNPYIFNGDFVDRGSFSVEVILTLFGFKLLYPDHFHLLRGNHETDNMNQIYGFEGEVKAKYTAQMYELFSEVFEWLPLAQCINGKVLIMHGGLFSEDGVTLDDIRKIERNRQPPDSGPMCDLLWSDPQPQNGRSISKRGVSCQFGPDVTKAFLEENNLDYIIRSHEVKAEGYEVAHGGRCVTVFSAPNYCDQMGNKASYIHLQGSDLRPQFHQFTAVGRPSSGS

T2 sequence (Q9NZJ5 whole entry): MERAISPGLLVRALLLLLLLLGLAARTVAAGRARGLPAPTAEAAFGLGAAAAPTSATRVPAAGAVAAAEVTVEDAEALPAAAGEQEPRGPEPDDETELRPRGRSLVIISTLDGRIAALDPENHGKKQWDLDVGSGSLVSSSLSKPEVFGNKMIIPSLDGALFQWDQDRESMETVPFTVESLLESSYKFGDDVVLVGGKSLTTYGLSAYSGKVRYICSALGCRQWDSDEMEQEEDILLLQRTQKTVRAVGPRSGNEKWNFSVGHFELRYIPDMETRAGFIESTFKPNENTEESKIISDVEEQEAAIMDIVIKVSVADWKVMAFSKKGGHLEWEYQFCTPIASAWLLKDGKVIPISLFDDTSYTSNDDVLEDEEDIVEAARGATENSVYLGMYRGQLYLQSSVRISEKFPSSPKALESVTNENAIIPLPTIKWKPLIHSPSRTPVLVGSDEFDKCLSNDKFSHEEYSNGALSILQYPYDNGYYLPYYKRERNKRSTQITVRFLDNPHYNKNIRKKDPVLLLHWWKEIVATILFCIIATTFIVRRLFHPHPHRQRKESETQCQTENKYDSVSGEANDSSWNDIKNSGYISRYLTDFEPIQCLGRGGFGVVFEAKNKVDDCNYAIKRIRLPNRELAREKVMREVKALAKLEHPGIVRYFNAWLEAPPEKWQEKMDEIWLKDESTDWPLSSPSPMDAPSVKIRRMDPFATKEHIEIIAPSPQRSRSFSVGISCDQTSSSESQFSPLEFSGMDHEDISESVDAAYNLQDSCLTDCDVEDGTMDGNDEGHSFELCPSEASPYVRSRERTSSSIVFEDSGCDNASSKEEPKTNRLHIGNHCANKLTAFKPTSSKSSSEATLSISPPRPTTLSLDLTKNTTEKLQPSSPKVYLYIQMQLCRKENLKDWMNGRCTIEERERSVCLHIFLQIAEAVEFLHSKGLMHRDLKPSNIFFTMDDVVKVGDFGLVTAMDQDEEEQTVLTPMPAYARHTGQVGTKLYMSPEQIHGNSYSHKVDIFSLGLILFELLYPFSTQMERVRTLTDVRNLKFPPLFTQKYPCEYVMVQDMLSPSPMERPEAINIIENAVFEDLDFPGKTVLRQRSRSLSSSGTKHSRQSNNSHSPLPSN
T1 sequence (P08659 whole entry): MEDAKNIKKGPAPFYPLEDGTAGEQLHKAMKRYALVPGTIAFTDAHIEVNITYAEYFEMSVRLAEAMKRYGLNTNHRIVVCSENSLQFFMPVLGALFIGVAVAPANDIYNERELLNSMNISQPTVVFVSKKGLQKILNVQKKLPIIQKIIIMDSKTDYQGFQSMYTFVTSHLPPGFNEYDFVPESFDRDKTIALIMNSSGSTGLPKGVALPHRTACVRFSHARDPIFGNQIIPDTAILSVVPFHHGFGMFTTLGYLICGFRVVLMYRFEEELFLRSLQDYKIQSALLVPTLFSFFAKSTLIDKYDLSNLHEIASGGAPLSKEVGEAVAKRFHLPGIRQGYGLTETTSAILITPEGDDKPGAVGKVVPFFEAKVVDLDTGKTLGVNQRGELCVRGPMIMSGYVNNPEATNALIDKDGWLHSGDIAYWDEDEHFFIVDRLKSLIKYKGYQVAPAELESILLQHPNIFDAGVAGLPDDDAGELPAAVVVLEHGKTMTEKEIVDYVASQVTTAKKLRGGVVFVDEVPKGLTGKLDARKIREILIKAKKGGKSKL
Sequence of Large T antigen (P03070 whole entry): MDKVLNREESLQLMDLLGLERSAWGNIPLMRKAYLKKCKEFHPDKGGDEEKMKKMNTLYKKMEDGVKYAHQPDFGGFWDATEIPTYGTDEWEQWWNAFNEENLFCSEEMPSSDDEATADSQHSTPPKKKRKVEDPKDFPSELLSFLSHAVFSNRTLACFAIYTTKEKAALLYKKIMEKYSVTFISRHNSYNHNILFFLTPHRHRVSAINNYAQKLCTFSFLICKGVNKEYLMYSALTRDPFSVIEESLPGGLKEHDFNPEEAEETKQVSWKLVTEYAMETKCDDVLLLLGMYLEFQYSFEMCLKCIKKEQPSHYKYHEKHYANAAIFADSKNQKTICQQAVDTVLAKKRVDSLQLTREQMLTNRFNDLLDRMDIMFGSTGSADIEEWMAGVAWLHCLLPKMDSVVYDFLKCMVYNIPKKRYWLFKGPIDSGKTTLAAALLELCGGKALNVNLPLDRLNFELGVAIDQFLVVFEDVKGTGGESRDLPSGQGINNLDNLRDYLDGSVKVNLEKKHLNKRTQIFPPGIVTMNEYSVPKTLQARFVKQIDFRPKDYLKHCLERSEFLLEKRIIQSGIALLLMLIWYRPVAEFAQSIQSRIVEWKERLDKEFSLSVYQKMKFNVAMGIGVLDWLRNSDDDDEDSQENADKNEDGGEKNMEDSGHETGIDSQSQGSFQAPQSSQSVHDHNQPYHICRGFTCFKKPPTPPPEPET
Sequence of Serine/threonine-protein phosphatase PP1-alpha catalytic subunit (P62136 whole entry): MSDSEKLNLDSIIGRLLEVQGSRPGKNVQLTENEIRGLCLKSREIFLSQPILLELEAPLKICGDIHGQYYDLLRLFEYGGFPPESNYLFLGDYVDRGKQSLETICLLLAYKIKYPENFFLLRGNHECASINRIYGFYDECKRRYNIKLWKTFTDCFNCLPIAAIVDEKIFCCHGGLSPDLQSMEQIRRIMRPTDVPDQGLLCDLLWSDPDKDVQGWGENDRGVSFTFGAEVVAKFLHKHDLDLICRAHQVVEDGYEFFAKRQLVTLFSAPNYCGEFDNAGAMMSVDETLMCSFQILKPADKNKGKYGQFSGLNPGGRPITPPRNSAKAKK
Sequence of Protein Tat (P04608 whole entry, the tested form may be a part): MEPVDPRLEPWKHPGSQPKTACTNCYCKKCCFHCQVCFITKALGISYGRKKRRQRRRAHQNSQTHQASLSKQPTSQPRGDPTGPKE
Sequence of Glyceraldehyde-3-phosphate dehydrogenase (P04406 whole entry): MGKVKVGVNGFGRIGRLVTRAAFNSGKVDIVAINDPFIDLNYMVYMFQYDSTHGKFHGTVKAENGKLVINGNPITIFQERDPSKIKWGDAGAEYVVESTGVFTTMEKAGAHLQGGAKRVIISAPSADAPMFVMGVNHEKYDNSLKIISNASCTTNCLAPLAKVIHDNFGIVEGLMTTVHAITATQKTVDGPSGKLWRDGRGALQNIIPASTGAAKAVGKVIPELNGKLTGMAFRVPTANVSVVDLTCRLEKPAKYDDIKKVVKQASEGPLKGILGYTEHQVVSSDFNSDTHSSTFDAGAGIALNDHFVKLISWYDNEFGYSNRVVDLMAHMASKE

CCOC(=O)/C(C#N)=C/C=C1/C=CC=CN1C
EC50 [1]: > 100 µM (active)

Cc1cc(C(=O)CN2C(=O)c3ccccc3S2(=O)=O)c(C)n1CC1CCCO1 (stereo not drawn)
AC50 [2]: 0.407 µM (active)
IC50 [3]: > 39.8 µM (not active)
EC50 [4]: 1.17 µM (active)
EC50 [5]: > 8 µM (not active)
IC50 [6]: > 100 µM (active)
AC50 [7]: 0.287 µM (active)
EC50 [8]: 8.14 µM (inactive)
EC50 [9]: > 50 µM (not active)
IC50 [10]: > 100 µM (not active)
EC50 [11]: > 8 µM (not active)
AC50 [12]: 0.445 µM (active)
AC50 [13]: 1.35 µM (active)
EC50 [14]: 6.87 µM (not active)
EC50 [15]: 0.456 µM (active)

COCCNC(=O)c1cnn2c(O)cc(C3CCN(C(=O)OC(C)(C)C)CC3)nc12
EC50 [16]: > 55.7 µM (not active)
EC50 [17]: > 55.7 µM (not active)

COc1cc(/C=C2\SC(=S)N(NC(=O)c3cccnc3)C2=O)ccc1O
EC50 [18]: 103 µM (active)
EC50 [19]: 9.9 µM (active)
IC50 [20]: 8.49 µM (active)
MIC [21]: > 37 µM (inconclusive)

Cc1ccc(-n2nc(C(=O)O)cc2-c2ccc(Cl)cc2)cc1
IC50 [22]: 9.65 µM (active)
IC50 [23]: > 67 µM (not active)
